Assay [1] concerns the target T1, JAK2 (a.a. 828-1132) (Homo sapiens, UniProt O60674).
T1 construct: JAK2 (a.a. 828-1132); His tag (N)
As to the kind of experiment: In vitro JAK kinase assay (HTRF, phosphorylation of biotinylated peptide), JAK2. It is filed as biochemical. The method, then: Compounds herein were tested for inhibitory activity of JAK targets according to the following in vitro assay described in Park et al., Analytical Biochemistry 1999, 269, 94-104. The catalytic domains of human JAK1 (a.a. 837-1142) and JAK2 (a.a. 828-1132) with an N-terminal His tag were expressed using baculovirus in insect cells and purified. The catalytic activity of JAK1 and JAK2 was assayed by measuring the phosphorylation of a biotinylated peptide. The phosphorylated peptide was detected by homogenous time resolved fluorescence (HTRF). […] Reactions were carried out at room temperature for 1 hour and then stopped with 20 μL 45 mM EDTA, 300 nM SA-APC, 6 nM Eu-Py20 in assay buffer (Perkin Elmer, Boston, Mass.). Binding to the Europium labeled antibody took place for 40 minutes and HTRF signal was measured on a Fusion plate reader (Perkin Elmer, Boston, Mass.). See Tables A-F for data related to compounds of the Examples (at 1 mM). Data is indicated as ranges, wherein “+” is less than 10 nM; “++” is 10 nM to 25 nM; “+++” is greater than 25 nM to 100 nM; and “++++” is greater than 100 nM. Greater than 25 nM to 100 nM specifies a range with a lower endpoint “at greater than 25 nM” and an upper endpoint at 100 nM.
(In general: Time-resolved FRET reads energy transfer from a long-lived donor to a nearby acceptor.)

Assay [2] addresses human JAK1 (a.a. 837-1142) (Homo sapiens, UniProt P23458). As to the kind of experiment: In vitro JAK kinase assay (HTRF, phosphorylation of biotinylated peptide), JAK1. It is filed as biochemical. The method, then:
Compounds herein were tested for inhibitory activity of JAK targets according to the following in vitro assay described in Park et al., Analytical Biochemistry 1999, 269, 94-104. The catalytic domains of human JAK1 (a.a. 837-1142) and JAK2 (a.a. 828-1132) with an N-terminal His tag were expressed using baculovirus in insect cells and purified. The catalytic activity of JAK1 and JAK2 was assayed by measuring the phosphorylation of a biotinylated peptide. The phosphorylated peptide was detected by homogenous time resolved fluorescence (HTRF). […] Reactions were carried out at room temperature for 1 hour and then stopped with 20 μL 45 mM EDTA, 300 nM SA-APC, 6 nM Eu-Py20 in assay buffer (Perkin Elmer, Boston, Mass.). Binding to the Europium labeled antibody took place for 40 minutes and HTRF signal was measured on a Fusion plate reader (Perkin Elmer, Boston, Mass.). […] Data is indicated as ranges, wherein “+” is less than 10 nM; “++” is 10 nM to 25 nM; “+++” is greater than 25 nM to 100 nM; and “++++” is greater than 100 nM. Greater than 25 nM to 100 nM specifies a range with a lower endpoint “at greater than 25 nM” and an upper endpoint at 100 nM.

Setting [3] is: read-out: JAK2 IC50 (nM) at 1 mM ATP, Table F.

As a reminder, the IC50 is the point on the concentration scale where inhibition reaches its midpoint.

Read-outs that look alike come from different tables or passages of the source.

Sequence of human JAK1 (a.a. 837-1142) (P23458 849-1154): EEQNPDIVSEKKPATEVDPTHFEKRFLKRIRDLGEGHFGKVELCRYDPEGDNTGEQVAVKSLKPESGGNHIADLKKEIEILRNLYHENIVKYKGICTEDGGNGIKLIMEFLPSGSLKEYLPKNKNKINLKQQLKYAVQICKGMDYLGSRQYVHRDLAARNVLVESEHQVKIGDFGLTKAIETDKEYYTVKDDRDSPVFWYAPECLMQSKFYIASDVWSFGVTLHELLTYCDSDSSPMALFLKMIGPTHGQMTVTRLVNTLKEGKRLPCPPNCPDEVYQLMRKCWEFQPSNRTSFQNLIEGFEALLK
T1 sequence (O60674 828-1132): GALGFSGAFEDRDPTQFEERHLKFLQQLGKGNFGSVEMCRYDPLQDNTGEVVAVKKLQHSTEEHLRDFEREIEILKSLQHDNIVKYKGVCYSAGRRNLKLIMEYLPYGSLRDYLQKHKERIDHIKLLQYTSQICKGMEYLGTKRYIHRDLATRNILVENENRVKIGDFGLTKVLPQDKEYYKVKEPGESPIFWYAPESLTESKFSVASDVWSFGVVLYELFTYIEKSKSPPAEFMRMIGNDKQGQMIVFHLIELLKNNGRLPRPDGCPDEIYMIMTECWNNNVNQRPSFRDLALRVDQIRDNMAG

Turning to `N#CC[C@]1(n2cc(-c3ncnc4[nH]ccc34)cn2)C[C@H](N2CCC(Oc3cc(CN4CCC[C@@H]4CO)cc(C(F)(F)F)n3)CC2)C1` [Example 162, {trans-3-(4-{[4-{[(2R)-2-(hydroxymethyl)pyrrolidin-1-yl]methyl}-6-(trifluoromethyl)pyridin-2-yl]oxy}piperidin-1-yl)-1-[4-(7H-pyrrolo[2,3-d]pyrimidin-4-yl)-1H-pyrazol-1-yl]cyclobutyl}acetonitrile], the half-maximal inhibitory concentration (IC50) in assay [1] (Table F, 1 mM ATP) is more than 100 nM; in assay [2] (Table F, 1 mM ATP) it was less than 10 nM.
The matching figures for `CC(C)CNC(=O)N1CCN([C@H]2C[C@](CC#N)(n3cc(-c4ncnc5[nH]ccc45)cn3)C2)CC1` [Example 101, 4-{trans-3-(cyanomethyl)-3-[4-(7H-pyrrolo[2,3-d]pyrimidin-4-yl)-1H-pyrazol-1-yl]cyclobutyl}-N-isobutylpiperazine-1-carboxamide]: 25 to 100 nM and less than 10 nM.
On to `CCNCc1cc(C(=O)N2CCN([C@H]3C[C@](CC#N)(n4cc(-c5ncnc6[nH]ccc56)cn4)C3)CC2)nc(C(F)(F)F)n1` [Example 47, {trans-3-(4-{[6-[(Ethylamino)methyl]-2-(trifluoromethyl)pyrimidin-4-yl]carbonyl}piperazin-1-yl)-1-[4-(7H-pyrrolo[2,3-d]pyrimidin-4-yl)-1H-pyrazol-1-yl]cyclobutyl}acetonitrile], for which the 50% inhibitory concentration (IC50) in assay [1] (Table F, 1 mM ATP) is 25 to 100 nM; in assay [2] (Table F, 1 mM ATP), less than 10 nM.
On to “3-[(4-{trans-3-(cyanomethyl)-3-[4-(7H-pyrrolo[2,3-d]pyrimidin-4-yl)-1H-pyrazol-1-yl]cyclobutyl}piperazin-1-yl)methyl]-5-[(dimethylamino)methyl]benzonitrile [Example 43]”, for which the IC50 was more than 100 nM in assay [1] (setting [3]) and 25 to 100 nM in assay [2] (read-out: JAK1 IC50 (nM) at 1 mM ATP, Table F).
With `N#CC[C@]1(n2cc(-c3ncnc4[nH]ccc34)cn2)C[C@@H](N2CCC(Oc3cc(CN4CCOC4=O)cc(C(F)(F)F)n3)CC2)C1` (single isomer, unassigned) [Example 165, peak 1, {cis-3-(4-{[4-[(2-oxo-1,3-oxazolidin-3-yl)methyl]-6-(trifluoromethyl)pyridin-2-yl]oxy}piperidin-1-yl)-1-[4-(7H-pyrrolo[2,3-d]pyrimidin-4-yl)-1H-pyrazol-1-yl]cyclobutyl}acetonitrile], the half-maximal inhibitory concentration (IC50) in assay [1] (Table F, 1 mM ATP) is more than 100 nM; in assay [2] (Table F, 1 mM ATP), 25 to 100 nM.
Consider `N#CC[C@]1(n2cc(-c3ncnc4[nH]ccc34)cn2)C[C@H](N2CCN(C(=O)c3cc(C(=O)O)nc(C(F)(F)F)n3)CC2)C1` [Example 48, 6-[(4-{trans-3-(cyanomethyl)-3-[4-(7H-pyrrolo[2,3-d]pyrimidin-4-yl)-1H-pyrazol-1-yl]cyclobutyl}piperazin-1-yl)carbonyl]-2-(trifluoromethyl)pyrimidine-4-carboxylic acid], for which the half-inhibitory concentration (IC50) in assay [1] (Table F, 1 mM ATP) is more than 100 nM; in assay [2] (Table F, 1 mM ATP), 10 to 25 nM.
As for `N#CCC1(n2cc(-c3ncnc4[nH]ccc34)cn2)CC(N2CCC(Oc3cc(CCO)nc(C(F)(F)F)n3)CC2)C1` (single isomer, unassigned; peak 2) [Example 164, peak 2, {cis-3-(4-{[6-(2-hydroxyethyl)-2-(trifluoromethyl)pyrimidin-4-yl]oxy}piperidin-1-yl)-1-[4-(7H-pyrrolo[2,3-d]pyrimidin-4-yl)-1H-pyrazol-1-yl]cyclobutyl}acetonitrile], the half-maximal inhibitory concentration (IC50) in assay [1] (setting [3]) is more than 100 nM; in assay [2] (read-out: JAK1 IC50 (nM) at 1 mM ATP, Table F, listed as 164, peak 2) it was 25 to 100 nM.
In the case of `CC[C@H](C)NC(=O)N1CCN([C@H]2C[C@@](CC#N)(n3cc(-c4ncnc5[nH]ccc45)cn3)C2)CC1` [Example 106, 4-{cis-3-(cyanomethyl)-3-[4-(7H-pyrrolo[2,3-d]pyrimidin-4-yl)-1H-pyrazol-1-yl]cyclobutyl}-N-[(1S)-1-methylpropyl]piperazine-1-carboxamide], the half-inhibitory concentration (IC50) in assay [1] (Table F, 1 mM ATP) is more than 100 nM; in assay [2] (Table F, 1 mM ATP), 10 to 25 nM.
The matching figures for `CCNCc1cc(OC2CCN([C@H]3C[C@](CC#N)(n4cc(-c5ncnc6[nH]ccc56)cn4)C3)CC2)nc(C(F)(F)F)n1` [Example 143, {trans-3-(4-{[6-[(ethylamino)methyl]-2-(trifluoromethyl)pyrimidin-4-yl]oxy}piperidin-1-yl)-1-[4-(7H-pyrrolo[2,3-d]pyrimidin-4-yl)-1H-pyrazol-1-yl]cyclobutyl}acetonitrile]: 25 to 100 nM and 10 to 25 nM.
The matching figures for `CC[C@@H](C)NC(=O)N1CCN([C@H]2C[C@](CC#N)(n3cc(-c4ncnc5[nH]ccc45)cn3)C2)CC1` [Example 102, 4-{trans-3-(cyanomethyl)-3-[4-(7H-pyrrolo[2,3-d]pyrimidin-4-yl)-1H-pyrazol-1-yl]cyclobutyl}-N-[(1R)-1-methylpropyl]piperazine-1-carboxamide]: 25 to 100 nM and less than 10 nM.
Turning to `N#CC[C@]1(n2cc(-c3ncnc4[nH]ccc34)cn2)C[C@@H](N2CCN(C(=O)c3cc(F)cc(C(F)(F)F)c3)CC2)C1` [Example 17, {cis-3-{4-[3-fluoro-5-(trifluoromethyl)benzoyl]piperazin-1-yl}-1-[4-(7H-pyrrolo[2,3-d]pyrimidin-4-yl)-1H-pyrazol-1-yl]cyclobutyl}acetonitrile], the concentration for half-maximal inhibition (IC50) in assay [1] (Table A, 1 mM ATP, read-out: JAK2 IC50) is 25 to 100 nM; in assay [2] (Table A, 1 mM ATP, read-out: JAK1 IC50), less than 10 nM.
With `CC(C)NC(=O)N1CCN([C@H]2C[C@@](CC#N)(n3cc(-c4ncnc5[nH]ccc45)cn3)C2)CC1` [Example 108, 4-{cis-3-(cyanomethyl)-3-[4-(7H-pyrrolo[2,3-d]pyrimidin-4-yl)-1H-pyrazol-1-yl]cyclobutyl}-N-isopropylpiperazine-1-carboxamide], the half-maximal inhibitory concentration (IC50) in assay [1] (Table F, 1 mM ATP) is more than 100 nM; in assay [2] (Table F, 1 mM ATP) it was 10 to 25 nM.
Turning to `CN(C)Cc1cc(Cl)nc(OC2CCN([C@H]3C[C@](CC#N)(n4cc(-c5ncnc6[nH]ccc56)cn4)C3)CC2)c1` [Example 141, {trans-3-[4-({6-chloro-4-[(dimethylamino)methyl]pyridin-2-yl}oxy)piperidin-1-yl]-1-[4-(7H-pyrrolo[2,3-d]pyrimidin-4-yl)-1H-pyrazol-1-yl]cyclobutyl}acetonitrile], the IC50 in assay [1] (Table F, 1 mM ATP) is less than 10 nM; in assay [2] (Table F, 1 mM ATP), less than 10 nM.
For `CN(C)Cc1cc(F)cc(OC2CCN(C3CC(CC#N)(n4cc(-c5ncnc6[nH]ccc56)cn4)C3)CC2)c1` (single isomer, unassigned; isomer 2) [Example 40, isomer 2, {trans-3-(4-{3-[(dimethylamino)methyl]-5-fluorophenoxy}piperidin-1-yl)-1-[4-(7H-pyrrolo[2,3-d]pyrimidin-4-yl)-1H-pyrazol-1-yl]cyclobutyl}acetonitrile], the 50% inhibitory concentration (IC50) is less than 10 nM in assay [1] (Table E, 1 mM ATP, listed as 40, isomer 2, read-out: JAK2 IC50 (nM) +) and less than 10 nM in assay [2] (read-out: JAK1 IC50 (nM) at 1 mM, Table E, 1 mM ATP).
Consider `N#CC[C@]1(n2cc(-c3ncnc4[nH]ccc34)cn2)C[C@H](N2CCN(Cc3c(F)ccc(F)c3Cl)CC2)C1` [Example 16b, {trans-3-[4-(2-chloro-3,6-difluorobenzyl)piperazin-1-yl]-1-[4-(7H-pyrrolo[2,3-d]pyrimidin-4-yl)-1H-pyrazol-1-yl]cyclobutyl}acetonitrile], for which the IC50 in assay [1] (Table B, 1 mM ATP, read-out: JAK2 IC50) was 25 to 100 nM; in assay [2] (Table B, 1 mM ATP, read-out: JAK1 IC50), less than 10 nM.
On to `CC(C)OC(=O)N1CCN([C@H]2C[C@](CC#N)(n3cc(-c4ncnc5[nH]ccc45)cn3)C2)CC1` [Example 120, isopropyl 4-{trans-3-(cyanomethyl)-3-[4-(7H-pyrrolo[2,3-d]pyrimidin-4-yl)-1H-pyrazol-1-yl]cyclobutyl}piperazine-1-carboxylate], for which the 50% inhibitory concentration (IC50) in assay [1] (Table F, 1 mM ATP) was 25 to 100 nM; in assay [2] (Table F, 1 mM ATP), less than 10 nM.
Taken in the same sequence, the figures for `N#CC[C@]1(n2cc(-c3ncnc4[nH]ccc34)cn2)C[C@H](N2CCN(C(=O)c3cc(CNC4CCC4)nc(C(F)(F)F)n3)CC2)C1` [Example 56, {trans-3-(4-{[6-[(cyclobutylamino)methyl]-2-(trifluoromethyl)pyrimidin-4-yl]carbonyl}piperazin-1-yl)-1-[4-(7H-pyrrolo[2,3-d]pyrimidin-4-yl)-1H-pyrazol-1-yl]cyclobutyl}acetonitrile] were 25 to 100 nM and less than 10 nM.

The record behind these values is US10640506B2, “Cyclobutyl substituted pyrrolopyridine and pyrrolopyrimidines derivatives as JAK inhibitors” (Incyte Corporation, priority 2010, dated 2020).
